Kd data for three compounds are collected here from article PMC11772155, “Solid-Phase-Supported Chemoenzymatic Synthesis and Analysis of Chondroitin Sulfate Proteoglycan Glycopeptides” (Angewandte Chemie (International ed. in English), 2024).

Numbered stars: 1 amine (or outer) side, 2 acyl side, 3 side chain; on linkers, the order of the positions; unused ones are H or OH. Square brackets hold non-standard residues; d marks the D form. Ends that are not written are not given here. Peptide text beside a SMILES is read from it. X3 = CC(=O)N[C@H]1[C@H](O[C@H]2[C@H](O)[C@@H](O)[C@H](O[C@H]3[C@@H](O)[C@@H](CO)O[C@@H](O[C@H]4[C@H](O)[C@@H](O)[C@H](O[C@H]5[C@@H](O)[C@@H](CO)O[C@@H](O[C@H]6[C@H](O)[C@@H](O)[C@H](O[C@H]7[C@@H](O)[C@@H](CO)O[C@@H](O[C@H]8[C@H](O)[C@@H](O)[C@H](O[C@H]9[C@@H](O)[C@@H](CO)O[C@@H](O[C@H]%10[C@@H](O)[C@@H](CO)O[C@@H](O[C@@H]%11CO[C@@H](OC[C@H](N[*:1])C(=O)[*:2])[C@H](O)[C@H]%11O)[C@@H]%10O)[C@@H]9O)O[C@@H]8C(=O)O)[C@@H]7NC(C)=O)O[C@@H]6C(=O)O)[C@@H]5NC(C)=O)O[C@@H]4C(=O)O)[C@@H]3NC(C)=O)O[C@@H]2C(=O)O)O[C@H](CO)[C@H](O)[C@@H]1O[C@@H]1O[C@H](C(=O)O)[C@@H](O)[C@H](O)[C@H]1O

The target of this test is T1, Human Neutrophil Cathepsin G (Homo sapiens, UniProt P08311).
T1 construct: Human Neutrophil Cathepsin G was purchased from Athens; purchased Athens Research & Technology, Inc. (Athens, Georgia)
T1 sequence (P08311 21-243 limits assumed): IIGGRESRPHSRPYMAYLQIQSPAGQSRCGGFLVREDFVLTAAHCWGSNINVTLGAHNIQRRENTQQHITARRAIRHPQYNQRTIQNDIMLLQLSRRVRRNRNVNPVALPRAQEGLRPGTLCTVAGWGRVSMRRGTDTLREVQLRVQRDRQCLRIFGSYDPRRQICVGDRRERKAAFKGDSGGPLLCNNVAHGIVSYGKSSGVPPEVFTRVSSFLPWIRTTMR
The test is described as follows: BLI (biolayer interferometry) binding assay of immobilized biotinylated compounds with Cathepsin G. The note with it: biotinylated compounds immobilized on streptavidin sensors, Cathepsin G at 2000, 1000, 500, 250 nM in PBS containing 0.005% P20, read-out: KD (nM) with Cathepsin G. From the text: With structurally defined glycopeptides in hand, we aim to better understand the structural features needed for bikunin glycopeptide binding. Cathepsin G (CatG), a neutrophil serine protease, plays a crucial role in regulating various physiological processes, including inflammation, digestion, smooth muscle contraction, and tissue remodeling.[64] While CatG has been reported to interact with CSPG, the structural requirement of CSPG binding has not been established.[25] To measure the binding affinity towards CatG, peptides 5 and glycopeptides 10, 18–21 were biotinylated and immobilized on streptavidin coated sensors for biolayer interferometry (BLI) studies. Biotinylated 50 kDa CS and CS-A were also immobilized on the sensors for comparison. […]
General procedure of glycopeptide biotinylation
To a solution of peptide or glycopeptide in DMSO/H 2O (1/1, 0.1 ml) was added NHS-LC-Biotin (4 equiv.) and diisoproylethylamine (pH ~ 8.5). The reaction was incubated at 37 °C for 2 h. Then the mixture was dried in vacuo and purified by HPLC.
General procedure for BLI binding assay
The binding assay was performed on the Octet K2 System (Pall ForteBio). The biotinylated compounds were incubated with streptavidin (SA) sensors for 2 min. The sensor was then balanced in the assay buffer (PBS containing 0.005% P20) and dipped into Cathepsin G solution in assay buffer at 2000 nM, 1000 nM, 500 nM, 250 nM concentrations.
After 5 min of association, the sensor was brought back to the previous assay buffer for a 5 min dissociation step. At the end of the assay, the sensor was regenerated in 2 M NaCl to remove the bound protein. Each measurement was repeated 3 times on the same sensor. The control assay was performed with another sensor loaded with a 2 mM biotin solution.
Figure S3. Binding of peptide and glycopeptides a) 5, b) 10 , c) 18 , d) 19 , e) 20 , f) 21 , g) commercially available biotinylated 50 kDa CS, and h) 50 kDa CS-A to neutrophil Cathepsin G as measured by BLI ( a-h respectively). The biotinylated compounds (50 nM) were immobilized on streptavidin coated biosensors, and human neutrophil Cathepsin G was captured on biosensors with four concentrations at 2000 nM, 1000 nM, 500 nM, 250 nM.
Fitting curves were shown in red lines. […]
Background: In BLI a coated tip is dipped into the sample, and binding shifts an interference pattern.

`CC(=O)N[C@H]1[C@H](O[C@H]2[C@H](O)[C@@H](O)[C@H](O[C@H]3[C@@H](O)[C@@H](CO)O[C@@H](O[C@H]4[C@H](O)[C@@H](O)[C@H](O[C@H]5[C@@H](O)[C@@H](CO)O[C@@H](O[C@H]6[C@H](O)[C@@H](O)[C@H](O[C@H]7[C@@H](O)[C@@H](CO)O[C@@H](O[C@H]8[C@H](O)[C@@H](O)[C@H](O[C@H]9[C@@H](O)[C@@H](CO)O[C@@H](O[C@H]%10[C@@H](O)[C@@H](CO)O[C@@H](O[C@@H]%11CO[C@@H](OC[C@H](NC(=O)CNC(=O)[C@H](CCC(=O)O)NC(=O)[C@H](CCC(=O)O)NC(=O)[C@H](CCC(=O)O)NC(=O)[C@H](CCC(N)=O)NC(=O)[C@@H]%12CCCN%12C(=O)[C@H](CC(C)C)NC(=O)[C@@H](NC(=O)[C@H](C)N)C(C)C)C(=O)NCC(=O)NCC(=O)NCC(=O)N[C@@H](CCC(N)=O)C(=O)N[C@@H](CC(C)C)C(=O)N[C@H](C(=O)N[C@H](C(=O)N[C@@H](CCC(=O)O)C(=O)N[C@H](C(=O)N[C@H](C(=O)N[C@@H](CCCCN)C(=O)N[C@@H](CCCCN)C(=O)N[C@@H](CCC(=O)O)C(=O)N[C@@H](CC(=O)O)C(=O)N[C@@H](CO)C(=O)O)[C@@H](C)O)C(C)C)[C@@H](C)O)C(C)C)[C@H](O)[C@H]%11O)[C@@H]%10O)[C@@H]9O)O[C@@H]8C(=O)O)[C@@H]7NC(C)=O)O[C@@H]6C(=O)O)[C@@H]5NC(C)=O)O[C@@H]4C(=O)O)[C@@H]3NC(C)=O)O[C@@H]2C(=O)O)O[C@H](CO)[C@H](O)[C@@H]1O[C@@H]1O[C@H](C(=O)O)[C@@H](O)[C@H](O)[C@H]1O` [Compound 18] (H-AVLPQEEEG[X3]GGGQLVTEVTKKEDS-OH; N-terminus and C-terminus assumed): the Kd (as a rule, the equilibrium constant for the complex coming apart) came to 490 ± 18 nM.
The figure for “H-AVLPQEEEGSGGGQLVTEVTKKEDS [Compound 5]” is 400 ± 40 nM; for `CC(=O)N[C@H]1[C@H](O[C@H]2[C@H](O)[C@@H](O)[C@H](O[C@H]3[C@@H](O)[C@@H](CO)O[C@@H](O[C@H]4[C@@H](O)[C@@H](CO)O[C@@H](O[C@@H]5CO[C@@H](OC[C@H](NC(=O)CNC(=O)[C@H](CCC(=O)O)NC(=O)[C@H](CCC(=O)O)NC(=O)[C@H](CCC(=O)O)NC(=O)[C@H](CCC(N)=O)NC(=O)[C@@H]6CCCN6C(=O)[C@H](CC(C)C)NC(=O)[C@@H](NC(=O)[C@H](C)N)C(C)C)C(=O)NCC(=O)NCC(=O)NCC(=O)N[C@@H](CCC(N)=O)C(=O)N[C@@H](CC(C)C)C(=O)N[C@H](C(=O)N[C@H](C(=O)N[C@@H](CCC(=O)O)C(=O)N[C@H](C(=O)N[C@H](C(=O)N[C@@H](CCCCN)C(=O)N[C@@H](CCCCN)C(=O)N[C@@H](CCC(=O)O)C(=O)N[C@@H](CC(=O)O)C(=O)N[C@@H](CO)C(=O)O)[C@@H](C)O)C(C)C)[C@@H](C)O)C(C)C)[C@H](O)[C@H]5O)[C@@H]4O)[C@@H]3O)O[C@@H]2C(=O)O)O[C@H](CO)[C@H](OS(=O)(=O)O)[C@@H]1O[C@@H]1O[C@H](C(=O)O)[C@@H](O[C@@H]2O[C@H](CO)[C@H](OS(=O)(=O)O)[C@H](O[C@@H]3O[C@H](C(=O)O)[C@@H](O[C@@H]4O[C@H](CO)[C@H](OS(=O)(=O)O)[C@H](O[C@@H]5O[C@H](C(=O)O)[C@@H](O[C@@H]6O[C@H](CO)[C@H](O)[C@H](O[C@@H]7O[C@H](C(=O)O)[C@@H](O)[C@H](O)[C@H]7O)[C@H]6NC(C)=O)[C@H](O)[C@H]5O)[C@H]4NC(C)=O)[C@H](O)[C@H]3O)[C@H]2NC(C)=O)[C@H](O)[C@H]1O` [Compound 21] it is 56 ± 8 nM.
